Test results published in article PMC11240878, “Synthesis, enzyme inhibition assay, and molecular modeling study of novel pyrazolines linked to 4-methylsulfonylphenyl scaffold: antitumor activity and cell cycle analysis” (RSC Advances, 2024).

How the values were obtained:
Assay type in all cases: cell-based, human
HT29 = experiment: NCI single-dose GI%, colon; conditions: 10.0 μM in one dose
SF-295 = experiment: NCI single-dose GI%, CNS; conditions: SF-295, CNS; 10.0 μM in one dose
59 cancer cell lines = experiment: NCI 59 cancer cell line panel, single dose; conditions: for MG% (mean growth percent): 10 μM single dose, 59 cell lines
NCI-H23 = experiment: NCI single-dose GI%, NSC lung; conditions: 10.0 μM in one dose
T-47D = experiment: NCI single-dose GI%, breast; conditions: 10.0 μM in one dose
A498 = experiment: NCI single-dose GI%, renal; conditions: 10.0 μM in one dose
MOLT-4 = experiment: NCI single-dose GI%, leukemia; conditions: MOLT-4, leukemia; 10.0 μM in one dose
LOX IMVI = experiment: NCI single-dose GI%, melanoma; conditions: 10.0 μM in one dose
MDA-MB-468 = experiment: NCI single-dose GI%, breast; conditions: MDA-MB-468, breast; 10.0 μM in one dose
NCI-H226 = experiment: NCI single-dose GI%, NSC lung; conditions: 10.0 μM in one dose
DU-145 = experiment: NCI single-dose GI%, prostate; conditions: DU-145, prostate; 10.0 μM in one dose
PC-3 = experiment: NCI single-dose GI%, prostate; conditions: PC-3, prostate; 10.0 μM in one dose
U251 = experiment: NCI single-dose GI%, CNS; conditions: 10.0 μM in one dose
MDA-MB-231/ATCC = experiment: NCI single-dose GI%, breast; conditions: 10.0 μM in one dose
EKVX = experiment: NCI single-dose GI%, NSC lung; conditions: 10.0 μM in one dose
SR = experiment: NCI single-dose GI%, leukemia; conditions: 10.0 μM in one dose
HCT-116 = experiment: NCI single-dose GI%, colon; conditions: HCT-116, colon; 10.0 μM in one dose
HCT-15 = experiment: NCI single-dose GI%, colon; conditions: HCT-15, colon; 10.0 μM in one dose
SF-539 = experiment: NCI single-dose GI%, CNS; conditions: SF-539, CNS; 10.0 μM in one dose
RPMI-8226 = experiment: NCI single-dose GI%, leukemia; conditions: RPMI-8226, leukemia; 10.0 μM in one dose

## Cc1ccc(NC(=O)c2ccc(CN3CCN(C)CC3)cc2)cc1Nc1nccc(-c2cccnc2)n1 [Imatinib, reference compound]
HT29
  GI%: 47.1%
SF-295
  GI%: 15.1%
59 cancer cell lines
  MG% (mean growth percent): 92.62%
59 cancer cell lines; listed as imatinib
  MG% (mean growth percent): 92.62%
59 cancer cell lines; CNS cancer subpanel, 10 μM
  GI% range, CNS cancer: 11–25%
59 cancer cell lines; NSCLC subpanel, 10 μM
  GI% range, NSCLC: 11–17%
59 cancer cell lines; all subpanels, 10 μM
  GI% range against most of the cancer cell lines tested: < 10–47%
59 cancer cell lines; breast cancer subpanel, 10 μM
  GI% range, breast cancer: 11–29%
59 cancer cell lines; colon cancer subpanel, 10 μM
  GI% range, colon cancer: 12–47%
59 cancer cell lines; leukemia subpanel, 10 μM
  GI% range, leukemia: 13–18%
59 cancer cell lines; melanoma subpanel, 10 μM
  GI% range, melanoma: 12–22%
59 cancer cell lines; ovarian cancer subpanel, 10 μM
  GI% range, ovarian cancer: < 10%
59 cancer cell lines; prostate cancer subpanel, 10 μM
  GI% range, prostate cancer: 11–14%
59 cancer cell lines; renal cancer subpanel, 10 μM
  GI% range, renal cancer: < 10–14%
NCI-H23
  GI%: 17.1%
T-47D
  GI%: 18.6%
A498
  GI%: 13.7%
MOLT-4
  GI%: 18%
LOX IMVI
  GI%: 11.6%
MDA-MB-468
  GI%: 29.1%
NCI-H226
  GI%: 10.6%
DU-145
  GI%: 14.4%
PC-3
  GI%: 10.6%
U251
  GI%: 10.6%
MDA-MB-231/ATCC
  GI%: 11.2%
EKVX
  GI%: 15.7%
SR
  GI%: 14.6%
HCT-116
  GI%: 18.6%
HCT-15
  GI%: 11.5%
SF-539
  GI%: 24.5%
RPMI-8226
  GI%: 12.6%
